Experimental findings from article PMC5557891, “Time-lapse crystallography snapshots of a double-strand break repair polymerase in action” (Nature Communications, 2017) are described below.

This assay deals with T1, pol μ (truncated human wild-type DNA polymerase μ) (Homo sapiens, UniProt Q9NP87, DEL398-410).
T1 construct: gene POLM; recalled: residues about 132-494; loop2 'previously truncated to improve crystallizability' (between Pro397 and Ser411; recalled deletion Pro398-Pro410); GST fusion from pGEXM, tag cut on resin with TEV; E. coli BL21(DE3)CodonPlus-RIPL; parent model PDB 4M04
Nature of the assay: time-lapse X-ray crystallography. Particulars: product complex after in crystallo TTP insertion into gapped DNA; 10 mM MgCl2 (60 min, 2.02 Å) or 10 mM MnCl2; 4 °C, pH 7.5. It is filed as binding.

T1 sequence (Q9NP87 with tags, fused parts or gaps DEL398-410): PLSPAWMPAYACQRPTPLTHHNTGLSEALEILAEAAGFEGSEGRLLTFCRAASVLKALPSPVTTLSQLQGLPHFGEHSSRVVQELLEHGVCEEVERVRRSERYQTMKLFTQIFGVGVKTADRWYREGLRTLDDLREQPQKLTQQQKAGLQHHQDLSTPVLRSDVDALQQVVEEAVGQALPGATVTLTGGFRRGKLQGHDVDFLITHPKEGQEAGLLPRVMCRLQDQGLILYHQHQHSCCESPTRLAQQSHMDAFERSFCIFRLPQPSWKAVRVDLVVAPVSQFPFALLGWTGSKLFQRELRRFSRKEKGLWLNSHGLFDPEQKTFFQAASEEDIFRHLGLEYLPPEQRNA

`O=P(O)(O)OP(=O)(O)O` [PPi]: the “time-lapse X-ray crystallography” value is “The position of Pβ of the PPi product is identical to that expected after bond cleavage”.
